# How the values were obtained:
# [1] = healthy volunteers, daily doses of up to 4800 μg (4.8 mg) for 14 days; cited from earlier work
# ΔF508 CFTR = target: T1, ΔF508 CFTR (Homo sapiens, UniProt P13569, DEL508-508); test: HS-YFP assay, CFTR potentiator activity in CFBE41o− cells; format: cell-based; details: 10 minutes exposure, following CFTR correction by VRT809 (5 μM, 24 h)
# T1 construct: cells expressing endogenous ΔF508-CFTR; endogenous in cells; host or cells: CFBE41o− human CF bronchial epithelial cell line (gift from D. C. Gruenert), homozygous ΔF508
# Excerpt: The CF human bronchial epithelial cell line (CFBE41o−), homozygous for the ΔF508 mutation of the CFTR protein (Ehrhard et al., 2006, Cell Tissue Res. Vol. 323, p. 405-415; kind gift from D. C. Gruenert, California Pacific Medical Center Research Institute, San Francisco, Calif., USA) and the human bronchial epithelial cell line 16HBE14o−, wildtype (wt) for the CFTR protein (kindly provided by P. Davis, Case Western Reserve University School of Medicine, Cleveland, Ohio, USA) were maintained in EMEM (Lonza) supplemented with 10% FBS and 1% Glutamax (Sigma). […]
# The CFTR activity in epithelial cells was evaluated by Yellow Fluorescence Protein (YFP) with a protocol modified from the method published by Averna et al. (PLoS One, 2013, vol. 8, e66089). […]
# The potential effect of different agents on the activity of CFTR in CFBE41o− cells was analysed by the HS-YFP assay, combining a short exposure (10 minutes) with agents as follows: CHF6001, Roflumilast or VRT 770 (5 μM), alone or in combination, with a 24 h pre-treatment with the CFTR corrector VRT809 (5 μM). […]
# T1 sequence (P13569 with tags, fused parts or gaps DEL508-508): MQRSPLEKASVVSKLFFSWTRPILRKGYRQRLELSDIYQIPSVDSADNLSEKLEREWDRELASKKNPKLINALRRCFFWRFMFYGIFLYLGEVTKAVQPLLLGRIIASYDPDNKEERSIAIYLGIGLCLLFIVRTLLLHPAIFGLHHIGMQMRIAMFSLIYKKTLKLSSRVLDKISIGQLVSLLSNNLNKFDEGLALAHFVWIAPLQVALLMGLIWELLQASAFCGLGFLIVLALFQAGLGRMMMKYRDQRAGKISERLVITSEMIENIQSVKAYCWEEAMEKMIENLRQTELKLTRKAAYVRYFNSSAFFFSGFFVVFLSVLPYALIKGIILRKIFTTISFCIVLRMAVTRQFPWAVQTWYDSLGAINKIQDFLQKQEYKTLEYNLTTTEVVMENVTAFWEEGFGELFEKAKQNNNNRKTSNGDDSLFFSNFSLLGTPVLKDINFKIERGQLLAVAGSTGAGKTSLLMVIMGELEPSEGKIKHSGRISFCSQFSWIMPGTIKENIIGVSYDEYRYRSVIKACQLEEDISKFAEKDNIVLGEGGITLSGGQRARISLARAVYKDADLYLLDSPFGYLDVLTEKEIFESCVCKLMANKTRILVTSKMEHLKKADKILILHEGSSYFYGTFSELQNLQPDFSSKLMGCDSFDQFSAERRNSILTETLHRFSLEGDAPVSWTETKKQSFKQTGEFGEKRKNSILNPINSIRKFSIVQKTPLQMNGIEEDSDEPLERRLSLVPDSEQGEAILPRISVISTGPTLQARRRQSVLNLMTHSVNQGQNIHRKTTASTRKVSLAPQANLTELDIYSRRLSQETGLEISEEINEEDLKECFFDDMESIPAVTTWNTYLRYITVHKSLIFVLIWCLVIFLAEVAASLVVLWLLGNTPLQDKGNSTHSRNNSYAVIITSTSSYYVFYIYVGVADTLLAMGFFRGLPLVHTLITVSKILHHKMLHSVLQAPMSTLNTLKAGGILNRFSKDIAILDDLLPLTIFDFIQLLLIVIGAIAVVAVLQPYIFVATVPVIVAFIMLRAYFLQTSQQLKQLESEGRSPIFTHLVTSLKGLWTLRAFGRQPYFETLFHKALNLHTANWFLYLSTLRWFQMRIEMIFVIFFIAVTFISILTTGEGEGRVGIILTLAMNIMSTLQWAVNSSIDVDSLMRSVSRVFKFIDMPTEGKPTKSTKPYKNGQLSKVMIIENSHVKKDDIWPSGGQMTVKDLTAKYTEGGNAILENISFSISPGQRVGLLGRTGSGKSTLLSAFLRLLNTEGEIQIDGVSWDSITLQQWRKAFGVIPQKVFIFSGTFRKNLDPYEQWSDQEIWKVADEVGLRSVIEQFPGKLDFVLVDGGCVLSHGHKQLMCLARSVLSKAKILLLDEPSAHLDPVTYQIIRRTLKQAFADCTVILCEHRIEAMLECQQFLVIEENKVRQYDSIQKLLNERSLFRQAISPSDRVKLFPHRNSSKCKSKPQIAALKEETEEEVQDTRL
structure (smiles),measurement,setting,value
"CS(=O)(=O)Nc1ccc(C(=O)OC(Cc2c(Cl)c[n+]([O-])cc2Cl)c2ccc(OC(F)F)c(OCC3CC3)c2)cc1OCC1CC1 (centres unmarked) [CHF6001, 3-Cyclopropylmethoxy-4-methanesulfonylamino-benzoic acid 1-(3-cyclopropylmethoxy-4-difluoromethoxy-phenyl)-2-(3,5-dichloro-1-oxy-pyridin-4-yl)-ethyl ester]",safety and tolerability,[1],Good safety and tolerability
same,CFTR activity (delta fluorescence un-stimulated versus stimulated cells),ΔF508 CFTR,comparable to the reference compound VRT 770
